Assay [1] has as its system Actinomyces viscosus cells. The assay can be described thus: Antibacterial effect: full strength rinses exposed to cells for 60 seconds, CFU count. Format: cell-based. As for the experimental part:
The antibacterial effect of chlorhexidine in the presence of aminoguanidine is determined by exposing the following full strength rinses to Actinomyces viscosus cells for 60 seconds.

Assay [2] in a line: In vitro stain retention on hydroxyapatite (bovine serum albumin/acetaldehyde browning model). The settings on record: 0.12, 0.25 and 1.0% of aminoguanidine gluconate with 0.12% CHX. The procedure: The following in vitro method correlates with and simulates the reaction whereby hydroxyapatite tooth mineral material is stained brown:
2.0 g hydroxyapatite (HAP), 10 ml of 25% Bovine Serum Albumin in 0.1M phosphate buffer (pH 7.0), 2.5 ml of 0.1M phosphate buffer containing mono-basic and di-basic sodium orthophosphate (pH 7), 25.0 ml of a test sample and 12.5 ml of 30% buffered acetaldehyde (pH 7) are mixed for 24 hrs. at 37 °C. The HAP is filtered and dried at 37 °C. The color retained on the HAP powder is qualified with a Gardner Color Difference Meter.

Assay [3] has as its system in vitro plaque which is formed by Actinomyces viscosus and strep mutans on extracted human teeth. The assay can be described thus: Antiplaque effect on in vitro plaque on extracted human teeth (visual score and erythrosine dye extraction). Format: cell-based. As for the experimental part: The antiplaque effect of chlorhexidine in the presence of aminoguanidine is determined by rinsing in vitro plaque which is formed by Actinomyces viscosus and strep mutans on extracted human teeth for 30 seconds once per day for three days with the full strength rinses below. The plaque growth is induced on teeth by daily transferring the teeth to an inoculated fresh medium (tryptocase soy broth). The amount of plaque is scored visually as well as after disclosing with erythrosine dye. The dye is then extracted with ethanol. The amount of the dye adsorbed is directly proportional to the amount of the plaque on teeth. The dye concentration is measured spectrophotometrically at wavelength 533nm.

Assay [4] can be described thus: Gingivitis/plaque/stain evaluation in monkeys sprayed with rinse once daily for 6 weeks. The class given is in vivo, squirrel monkeys. The settings on record: for Final Gingival Index: once daily spray 30 seconds; for Initial Gingival Index: baseline before treatment, scale 0-4; for Initial Plaque Index: modified Quigley-Hein index. Also noted: key to Final Gingival Index: 0 = clinically normal gingiva to 4 = obvious redness with bleeding; Initial Stain Index / Final Stain Index: scale not given here. As for the experimental part: Adult squirrel monkeys are prepared for a gingivitis/plaque/stain evaluation including thorough prophylaxis. 36 surfaces (maxillary and mandibular; mesial, buccal and distal) are initially evaluated for plaque by a modified Quigley-Hein index and gingival inflation by the following scale: 0 - clinically normal; pink, form, knife-like gingival margin, triangular interdental papilla; 1 - change in the form of gingiva; gingival margin may be slightlyenlarged, no longer knife-like and firm, no color change; 2 - slight color change of marginal gingiva of interdental papilla, discrete areas of redness at most cornal surfaces of the free gingiva; 3- obvious color change in marginal gingiva or interdental papilla, no bleeding on probing; 4 - obvious color change; redness obvious; in addition, bleeding on probing or spontaneous bleeding.
The squirrel monkeys are then divided into 3 groups of four and each is treated in a double blind manner once daily for 6 weeks. All dentitions are sprayed for 30 seconds from polyethylene bottles containing rinse solution.
Initial and 6 week evaluations for three studies for plaque formation and gingival inflamation and 6 week evaluations for stain (indicate general protocol) follow, with stain TABLE 4

Results on two molecules are retold here after patent EP0372603A2, “Antibacterial oral composition” (Colgate-Palmolive Company, priority 1988, dated 1990).

`N=C(N)NN` [Aminoguanidine, Hydrazine Carboximidamide (aminoguanidine)]: the “antibacterial effect (in words)” value in assay [1] (0.25% Aminoguanidine alone) was “no antibacterial effect”. The “effect on antibacterial activity of chlorhexidine (in words)” value in assay [1] (0.25% Aminoguanidine with CHX) is on record as “does not compromise antibacterial activity of chlorhexidine”. Besides, the “chlorhexidine induced stain (in words)” value in assay [2] is “reduces the chlorhexidine induced stain at least to about the level of the placebo”. Moreover, the “antiplaque activity (in words)” value in assay [3] (0.25% Aminoguanidine alone) is “no antiplaque activity”. The “effect on antiplaque activity of chlorhexidine (in words)” value in assay [3] (0.25% Aminoguanidine with CHX) is recorded as “does not compromise the antiplaque activity of chlorhexidine”.

`[H]/N=C(\N/C(=N/[H])NCCCCCCNC(=N)NC(=N)Nc1ccc(Cl)cc1)Nc1ccc(Cl)cc1` [CHX, chlorhexidine gluconate]: the “Final Plaque Index” value was 1.24 in assay [4] (Study A, after 6 weeks); 0.47 in assay [4] (Study B, after 6 weeks); 0.83 in assay [4] (Study C, after 6 weeks). The “Final Gingival Index” value in assay [4] (Study A, after 6 weeks) is given as 0.49; in assay [4] (Study B, after 6 weeks), 0.47; in assay [4] (Study C, after 6 weeks) it was 0.63. In addition, the “Initial Gingival Index” value in assay [4] (Study A) is listed as 0.43; in assay [4] (Study B), 0.54; in assay [4] (Study C) it was 0.56. In addition, the “Initial Plaque Index” value came to 0.55 in assay [4] (Study A, baseline); 0.15 in assay [4] (Study B, baseline); 0.53 in assay [4] (Study C, baseline). Moreover, the “Final Stain Index” value in assay [4] (Study B, after 6 weeks) is 0.62. The “Initial Stain Index” value in assay [4] (Study B, baseline) is reported as 0.01.
